# pIC50: −log10 of the molar value.
# How the values were obtained:
# Format in all cases: functional, cell-based
# [1] = system: PANC-1; assay: Cytotoxicity against human PANC-1 cells assessed as inhibition of cell growth incubated for 72 hrs by MTT assay; conditions: PANC-1, 72 h
# [2] = system: BXPC-3; assay: Cytotoxicity against human BXPC-3 cells assessed as inhibition of cell growth incubated for 72 hrs by MTT assay; conditions: BXPC-3, 72 h
# [3] = system: MIA PaCa-2; assay: Cytotoxicity against human MIA PaCa-2 cells assessed as inhibition of cell growth incubated for 72 hrs by MTT assay; conditions: MIA PaCa-2, 72 h
SMILES,pIC50 [1],pIC50 [2],pIC50 [3]
Cc1cnc(C(=O)Nc2cc(OCCN(C)C)cc3cccnc23)cn1,5.35,5.01,5.74
Cc1cnc(C(=O)Nc2cc(OCCC3CCNCC3)cc3cccnc23)cn1,< 5.00,5.08,5.21
O=C(Nc1nccc2cccnc12)c1cnccn1,5.17,5.14,5.11
O=C(Nc1cccc2cccnc12)c1cnc(Cl)cn1,5.03,< 5.00,5.15
COc1cc(NC(=O)c2cnc(C)cn2)c2ncccc2c1,6.10,5.17,6.57
COc1cc(NC(=O)c2ncccn2)c2ncccc2c1,5.05,< 5.00,5.89
O=C(Nc1cc(OCCC2CCNCC2)cc2cccnc12)c1ncccn1,< 5.00,< 5.00,< 5.00
NCCOc1cc(NC(=O)c2cnccn2)c2ncccc2c1,< 5.00,< 5.00,< 5.00
O=C(Nc1cc(OCCN2CCOCC2)cc2cccnc12)c1cnccn1,5.09,5.29,5.77
Cc1cnc(C(=O)Nc2cccc3cccnc23)cn1,5.74,5.03,6.30
CC(C)(C)OC(=O)NCCOc1cc(NC(=O)c2cnccn2)c2ncccc2c1,5.02,5.04,6.06
CN(C)Cc1ccc2cccc(NC(=O)c3cnccn3)c2n1,< 5.00,< 5.00,< 5.00
O=C(Nc1cc(OCCN2CCCCC2)cc2cccnc12)c1cnccn1,< 5.00,< 5.00,< 5.00
